The target of experiment [1] is T1, Peroxisome proliferator-activated receptor gamma (Homo sapiens) (UniProt P37231).
T1 sequence (whole entry): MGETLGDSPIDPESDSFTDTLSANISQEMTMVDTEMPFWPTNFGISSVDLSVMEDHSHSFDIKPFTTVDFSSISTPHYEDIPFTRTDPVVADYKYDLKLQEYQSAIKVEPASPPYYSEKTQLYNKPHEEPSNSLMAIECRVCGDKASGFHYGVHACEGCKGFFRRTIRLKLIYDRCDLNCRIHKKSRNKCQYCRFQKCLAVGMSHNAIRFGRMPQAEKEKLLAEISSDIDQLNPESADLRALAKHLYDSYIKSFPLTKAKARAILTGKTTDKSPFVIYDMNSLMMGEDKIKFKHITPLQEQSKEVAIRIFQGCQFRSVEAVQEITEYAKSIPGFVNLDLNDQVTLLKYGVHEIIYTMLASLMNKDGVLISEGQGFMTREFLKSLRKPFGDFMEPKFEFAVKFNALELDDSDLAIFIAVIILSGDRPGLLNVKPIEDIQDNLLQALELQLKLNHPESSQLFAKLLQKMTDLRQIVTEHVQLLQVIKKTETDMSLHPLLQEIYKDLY
Nature of the experiment: (§1) Antagonist activity at PPARgamma (unknown origin). The following applies: filed as antagonist.

Experiment [2] concerns the target T1, Peroxisome proliferator-activated receptor gamma (Homo sapiens). Nature of the experiment: Inhibition of PPARgamma (unknown origin).
Experiment [3] has as its target T2, Peroxisome proliferator-activated receptor gamma (Homo sapiens, UniProt P37231).
T2 sequence (P37231 whole entry): T1 sequence (whole entry)
The description is as §1.

Activity calls are given as the source filed them. The rule behind the calls is not given here.

Consider `Cc1cc([N+](=O)[O-])ccc1NS(=O)(=O)c1cc(Cl)ccc1Cl`, for which the result in experiment [1] was Active. Turning to `COc1ccc2nccc(NC(=O)c3cc([N+](=O)[O-])ccc3Cl)c2c1`, the inhibition result in experiment [2] is “Active”.

Turning to `O=C(Nc1ccccc1)c1cc([N+](=O)[O-])ccc1Cl`, the IC50 (commonly the concentration that gives 50% inhibition) in experiment [3] was 3.3 nM. As for `COP(=O)(OC)OC(c1ccc(Cl)cc1)P(=O)(OC)OC` (centres undefined), the outcome in experiment [1] was Active.

The values are drawn from ChEMBL document CHEMBL5614444, “Advancements in Targeted Therapeutics: Integrating Metabolic Modulation, Immune Engineering, and Biologic Formulation Technologies” (ACS Med Chem Lett, 2024).
